Test results: US20110178062A1, “INDOLE AND BENZOTHIOPHENE COMPOUNDS AS MODULATORS OF THE HISTAMINE H3 RECEPTOR” (priority 2007, published 2011)

Target: T1, cloned human H3 receptors, stably expressed in SK-N-MC cells (Homo sapiens, UniProt Q9Y5N1)
T1 construct: expressed in transfected cells; host or cells: SK-N-MC cells
Experiment: H3 Receptor Binding (Human)
Procedure: Binding of compounds to the cloned human H3 receptors, stably expressed in SK-N-MC cells, was performed as described by Barbier, A. J. et al. (Br. J. Pharmacol. 2004, 143(5), 649-661). Data for compounds tested in this assay are presented in Table 1 as an average of the results obtained.

[1] = average of the results obtained

T1 sequence (Q9Y5N1 whole entry): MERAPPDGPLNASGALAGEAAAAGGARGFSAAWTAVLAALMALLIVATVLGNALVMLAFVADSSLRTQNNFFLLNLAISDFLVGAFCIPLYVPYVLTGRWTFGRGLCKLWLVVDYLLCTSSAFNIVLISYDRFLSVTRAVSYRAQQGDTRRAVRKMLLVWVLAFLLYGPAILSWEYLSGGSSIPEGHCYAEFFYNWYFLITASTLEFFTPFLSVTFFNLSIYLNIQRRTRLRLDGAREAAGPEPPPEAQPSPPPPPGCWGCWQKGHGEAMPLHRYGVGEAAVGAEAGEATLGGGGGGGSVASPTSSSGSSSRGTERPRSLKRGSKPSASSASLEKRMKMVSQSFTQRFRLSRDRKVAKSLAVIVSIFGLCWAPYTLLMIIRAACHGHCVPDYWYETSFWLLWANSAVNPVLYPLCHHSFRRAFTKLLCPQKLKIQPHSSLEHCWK

Row | Structure (SMILES) | Ki (stated in text for the intermediate of Example 35, Step A) | Ki [1]
1 | CC(C)N1CCN(C(=O)c2ccc3[nH]ccc3c2)CC1 [(1H-Indol-5-yl)-(4-isopropyl-piperazin-1-yl)-methanone] | 97 nM | 
2 | O=C(c1ccc2c(CN3CCOCC3)c[nH]c2c1)N1CCCN(C2CCC2)CC1 [Example 9, (4-Cyclobutyl-[1,4]diazepan-1-yl)-(3-morpholin-4-ylmethyl-1H-indol-6-yl)-methanone] |  | 1 nM
3 | O=C(NCc1ccncc1)c1ccc2c(CN3CCOCC3)c[nH]c2c1 [Example 11, 3-Morpholin-4-ylmethyl-1H-indole-6-carboxylic acid (pyridin-4-ylmethyl)-amide] |  | 228 nM
4 | Cc1cccnc1CNC(=O)c1ccc2c(CN3CCOCC3)c[nH]c2c1 [Example 12, 3-Morpholin-4-ylmethyl-1H-indole-6-carboxylic acid (3-methyl-pyridin-2-ylmethyl)-amide] |  | 2000 nM
5 | O=C(c1ccc2c(CN3CCOCC3)c[nH]c2c1)N1CCc2nc[nH]c2C1 [Example 13, (3-Morpholin-4-ylmethyl-1H-indol-6-yl)-(3,4,6,7-tetrahydro-imidazo[4,5-d]pyridin-5-yl)-methanone] |  | 2000 nM
6 | O=C(c1ccc2c(CN3CCOCC3)c[nH]c2c1)N1CCC(N2CCCC2=O)CC1 [Example 14, 1-[1-(3-Morpholin-4-ylmethyl-1H-indole-6-carbonyl)-piperidin-4-yl]-pyrrolidin-2-one] |  | 609 nM
7 | O=C(NCc1ccncc1)c1ccc2c(CN3CCCCC3)c[nH]c2c1 [Example 16, 3-Piperidin-1-ylmethyl-1H-indole-6-carboxylic acid (pyridin-4-ylmethyl)-amide] |  | 327 nM
8 | O=C(c1ccc2c(CN3CCCCC3)c[nH]c2c1)N1CCC(N2CCCC2=O)CC1 [Example 19, 1-[1-(3-Piperidin-1-ylmethyl-1H-indole-6-carbonyl)-piperidin-4-yl]-pyrrolidin-2-one] |  | 260 nM
9 | CC(C)N1CCN(C(=O)c2ccc3c(CN4CCCCC4)c[nH]c3c2)CC1 [Example 24, (4-Isopropyl-piperazin-1-yl)-(3-piperidin-1-ylmethyl-1H-indol-6-yl)-methanone] |  | 2 nM
10 | CC(C)N1CCN(C(=O)c2ccc3c(CN4CCOCC4)cn(S(C)(=O)=O)c3c2)CC1 [Example 26, (4-Isopropyl-piperazin-1-yl)-(1-methanesulfonyl-3-morpholin-4-ylmethyl-1H-indol-6-yl)-methanone] |  | 18 nM
11 | CC(C)N1CCN(Cc2c[nH]c3cc(C(=O)N4CCCCC4)ccc23)CC1 [Example 27, [3-(4-Isopropyl-piperazin-1-ylmethyl)-1H-indol-6-yl]-piperidin-1-yl-methanone] |  | 28 nM
12 | O=C(c1ccc2c(CN3CCN(C4CC4)CC3)c[nH]c2c1)N1CCCCC1 [Example 28, [3-(4-Cyclopropyl-piperazin-1-ylmethyl)-1H-indol-6-yl]-piperidin-1-yl-methanone] |  | 177 nM
13 | CC(C)N1CCCN(Cc2c[nH]c3cc(C(=O)N4CCCCC4)ccc23)CC1 [Example 30, [3-(4-Isopropyl-[1,4]diazepan-1-ylmethyl)-1H-indol-6-yl]-piperidin-1-yl-methanone] |  | 26 nM
14 | O=C(c1ccc2c(CN3CCCN(C4CC4)CC3)c[nH]c2c1)N1CCCCC1 [Example 31, [3-(4-Cyclopropyl-[1,4]diazepan-1-ylmethyl)-1H-indol-6-yl]-piperidin-1-yl-methanone] |  | 214 nM
15 | CC(C)N1CCN(C(=O)c2ccc3[nH]cc(CN4CCCCC4)c3c2)CC1 [Example 32, (4-Isopropyl-piperazin-1-yl)-(3-piperidin-1-ylmethyl-1H-indol-5-yl)-methanone] |  | 34 nM
16 | O=C(c1cccc2c(CN3CCN(C4CCC4)CC3)c[nH]c12)N1CCCCC1 [Example 36, [3-(4-Cyclobutyl-piperazin-1-ylmethyl)-1H-indol-7-yl]-piperidin-1-yl-methanone] |  | 81 nM
17 | O=C(c1cccc2[nH]cc(CN3CCN(C4CCC4)CC3)c12)N1CCCCC1 [Example 37, [3-(4-Cyclobutyl-piperazin-1-ylmethyl)-1H-indol-4-yl]-piperidin-1-yl-methanone] |  | 318 nM
18 | CC(C)N1CCN(C(=O)c2cccc3[nH]cc(CN4CCOCC4)c23)CC1 [Example 39, (4-Isopropyl-piperazin-1-yl)-(3-morpholin-4-ylmethyl-1H-indol-4-yl)-methanone] |  | > 10000 nM
19 | O=C(c1ccc2[nH]cc(CN3CCOCC3)c2c1)N1CCN(C2CCC2)CC1 [Example 40, (4-Cyclobutyl-piperazin-1-yl)-(3-morpholin-4-ylmethyl-1H-indol-5-yl)-methanone] |  | 33 nM
20 | O=C(c1cccc2[nH]cc(CN3CCOCC3)c12)N1CCN(C2CCC2)CC1 [Example 41, (4-Cyclobutyl-piperazin-1-yl)-(3-morpholin-4-ylmethyl-1H-indol-4-yl)-methanone] |  | 5000 nM

The remaining compounds from weak to strong by Ki [1], led by results:

Row | Ki (stated in text for the intermediate of Example 35, Step A) | Ki [1] | Structure (SMILES)
21 |  | 5010 nM | O=C(NCc1cccnc1)c1ccc2c(CN3CCOCC3)c[nH]c2c1 [Example 10, 3-Morpholin-4-ylmethyl-1H-indole-6-carboxylic acid (pyridin-3-ylmethyl)-amide]
22 |  | 5010 nM | O=C(c1ccc2c(CN3CCCCC3)c[nH]c2c1)N1CCc2nc[nH]c2C1 [Example 18, (3-Piperidin-1-ylmethyl-1H-indol-6-yl)-(3,4,6,7-tetrahydro-imidazo[4,5-c]pyridin-5-yl)-methanone]
23 |  | 1500 nM | O=C(c1cccc2[nH]cc(CN3CCCCC3)c12)N1CCN(C2CCC2)CC1 [Example 42, (4-Cyclobutyl-piperazin-1-yl)-(3-piperidin-1-ylmethyl-1H-indol-4-yl)-methanone]
24 |  | 427 nM | O=C(c1ccc2[nH]cc(CN3CCN(C4CCC4)CC3)c2c1)N1CCCCC1 [Example 38, [3-(4-Cyclobutyl-piperazin-1-ylmethyl)-1H-indol-5-yl]-piperidin-1-yl-methanone]
25 |  | 265 nM | CC(C)N1CCN(C(=O)c2ccc3[nH]cc(CN4CCOCC4)c3c2)CC1 [Example 35, (4-Isopropyl-piperazin-1-yl)-(3-morpholin-4-ylmethyl-1H-indol-5-yl)-methanone]
26 |  | 117 nM | O=C(NCc1cccnc1)c1ccc2c(CN3CCCCC3)c[nH]c2c1 [Example 15, 3-Piperidin-1-ylmethyl-1H-indole-6-carboxylic acid (pyridin-3-ylmethyl)-amide]
27 |  | 114 nM | Cc1cccnc1CNC(=O)c1ccc2c(CN3CCCCC3)c[nH]c2c1 [Example 17, 3-Piperidin-1-ylmethyl-1H-indole-6-carboxylic acid (3-methyl-pyridin-2-ylmethyl)-amide]
28 |  | 46 nM | Cn1cc(CN2CCOCC2)c2ccc(C(=O)N3CCN(C4CC4)CC3)cc21 [Example 2, (4-Cyclopropyl-piperazin-1-yl)-(1-methyl-3-morpholin-4-ylmethyl-1H-indol-6-yl)-methanone]
29 |  | 32 nM | CC(C)N1CCN(C(=O)c2cccc3c(CN4CCCCC4)c[nH]c23)CC1 [Example 22, (4-Isopropyl-piperazin-1-yl)-(3-piperidin-1-ylmethyl-1H-indol-7-yl)-methanone]
30 |  | 13 nM | O=C(c1ccc2[nH]cc(CN3CCCCC3)c2c1)N1CCN(C2CCC2)CC1 [Example 33, (4-Cyclobutyl-piperazin-1-yl)-(3-piperidin-1-ylmethyl-1H-indol-5-yl)-methanone]
31 |  | 1 nM | O=C(c1ccc2c(CN3CCOCC3)c[nH]c2c1)N1CCCN(C2CC2)CC1 [Example 8, (4-Cyclopropyl-[1,4]diazepan-1-yl)-(3-morpholin-4-ylmethyl-1H-indol-6-yl)-methanone]
